This note sets out measurements from the METLIN SMRT retention time set (Domingo-Almenara et al. 2019).

This series in a line: gradient 5% acetonitrile 3 min, to 50% in 2 min, to 85% in 15 min, held 3 min, 100 µL/min. Particulars: column: Zorbax Extend-C18 2.1 x 50 mm; eluents: water / acetonitrile, 0.1% formic acid. In short, it runs like this:
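A Zorbax Extend-C18 column (2.1 × 50 mm, 1.8 μm) run at 100 μL/min with water and acetonitrile, both containing 0.1% formic acid, separated mixtures of ~100 pure standards. The HPLC was coupled to a quadrupole time-of-flight mass spectrometer operated in positive and negative ionization mode, with dead and dwell volumes of 40 μL and 900 μL. Each retention time was taken from a computationally picked adduct peak that was then manually inspected.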
In the case of `CS(=O)(=O)Nc1ccc(-c2noc(CN3C(=O)COc4ccc(Cl)cc43)n2)cc1`, the RP-LC retention time was 879 s.
`CCn1c(=O)c(=O)n(CC(=O)NC2CCCCCC2)c2cccnc21` yielded an RP-LC retention time of 760 s.
Molecule `CCCCOc1ccc(NC(=O)c2oc3ccc(F)cc3c2C)c2cccnc12` displayed an RP-LC retention time of 850 s.
Regarding `CCN1CCN(c2cc(C)c3cc(NC(=S)NCc4cccs4)ccc3n2)CC1`, the RP-LC retention time is 584 s.
The value for `Cc1nccn1CC(=O)N1CCCC(OCc2nc(C3CC3)no2)C1` (centres undefined) was 577 s.
`COc1cc(-c2nc3ccc(Cl)cn3c2Nc2ccccc2C)ccc1O` returned an RP-LC retention time of 720 s.
With `Cc1cccc(Cn2nc(-c3nc(C(C)(C)C)no3)ccc2=O)c1` the figure was 1110 s.
Consider `CN(C)S(=O)(=O)c1ccc2c(c1)N(CC(=O)N1CCc3ccccc31)C(=O)C1CCCCN21` (centres undefined), for which the RP-LC retention time worked out at 960 s.
With `O=C(NCCN1CCOCC1)C1CCN(c2ccc3nnc(-c4ccccc4Cl)n3n2)CC1`, the RP-LC retention time was found to be 596 s.
As to `Cc1c(Cl)cccc1NC(=O)N(C)CC1CCOCC1`, the RP-LC retention time came to 750 s.
Take `O=C(C1CCCN(c2ncccc2-c2noc(C3CCC3)n2)C1)N1CCCCC1` (centres undefined): the RP-LC retention time came out at 928 s.
`Cc1cccc(CCNC(=O)Cc2csc3nc(-c4ccccc4)cn23)c1` had an RP-LC retention time of 810 s.
Take `Cc1ccc(NC(=O)c2cc(C(C)C)n3nccc3n2)cc1`: the RP-LC retention time was found to be 1140 s.
For the molecule `O=C(CCNc1c(-c2cccc(F)c2)nc2cnccn12)NCc1ccco1`, the RP-LC retention time was determined as 680 s.
`CN1c2ccccc2C(=O)NC12CCN(C(=O)Nc1cccc(F)c1)CC2` had an RP-LC retention time of 726 s.
In turn, `Cc1cccc(NC(=O)c2cnc3c(c2)c(=O)n(C)c(=O)n3-c2ccc(F)cc2)c1` registered an RP-LC retention time of 904 s.
With `COc1cccc(CNC(=O)Cn2cnc3c(sc4nc(-c5ccccc5)ccc43)c2=O)c1` the figure was 975 s; with `CCOC(=O)c1noc2nc(C)nc(Nc3ccc(OCC)cc3)c12`, 1130 s.
`CCN(C(=O)CN1C(=O)CCCc2cc(S(=O)(=O)N3CCC(C)CC3)ccc21)c1ccccc1`: the RP-LC retention time turned out to be 1050 s.
With `Cc1ccc(C)c(-c2csc(NC(=O)c3sc(-c4ccccc4)nc3C)n2)c1` the figure was 1350 s; with `O=C(COc1ccc(Cl)cc1)Nc1ccccc1NC(=O)c1cccs1`, 887 s.
`CCn1c(C(=O)N2CCN(c3ccc(OC)cc3)CC2)cc2sccc21` yielded an RP-LC retention time of 973 s.
On to `O=C(NCCCN1CCCC1=O)c1csc(N2CCN(c3ccc(Cl)cc3)CC2)n1`, for which the RP-LC retention time was found to be 881 s.
With `O=C(N[C@H]1C[C@@H]2C[C@H]1N(C(=O)c1ccc(Cl)s1)C2)c1cccs1` the figure was 850 s; with `CCCNC(=O)C1Cn2cccc2C(=O)N1` (centres undefined), 581 s.
Take `Cc1ccc(C)c(CNS(=O)(=O)c2cc(-c3nc(C(C)(C)C)cs3)cs2)c1`: the RP-LC retention time stood at 1360 s.
`COCCNc1ncc(C(=O)O)c(-c2cccc(C)c2)n1` had an RP-LC retention time of 700 s.
`O=C(NC1CCCCC1)C1CCN(c2cncnc2N2CCCC2)CC1` yielded an RP-LC retention time of 637 s.
With `CCC(=O)Nc1ccc(-n2cnc(C(=O)NCC(C)C)c2)nc1` the figure was 667 s; with `Cc1cc2nn(CC(=O)Nc3ccccc3C)c(=O)n2c(-c2ccc(F)cc2)n1`, 796 s; with `Cc1cc(C)cc(-n2ccn(Cc3nc(-c4ccc(C)cc4C)no3)c(=O)c2=O)c1`, 1020 s.
In the case of `CC1CN(C(=O)CSc2cn(CC(=O)N3CCCCCC3)c3ccccc23)CC(C)O1` (centres undefined), the RP-LC retention time was 897 s.
As for `Cc1cc(S(=O)(=O)N2CC(c3nc(-c4ccccc4)nn3C)C2)ccc1F`, the RP-LC retention time is 602 s.
With `Cc1ccc2oc(-c3nnc(C(=O)NCCCN4CCCC4)o3)c(C)c2c1` the figure was 688 s.
Molecule `CCc1ccc(NC(=O)C2CCCN(c3nc4ccccc4nc3C(F)(F)F)C2)cc1` (centres undefined) returned an RP-LC retention time of 1230 s.
`COCCNC(=O)Nc1nc(CSCc2cc(OC)cc(OC)c2)cs1` displayed an RP-LC retention time of 734 s.
`Cc1ccc(C)c(NC(=O)Cn2ccc3sccc3c2=O)c1` showed an RP-LC retention time of 742 s.
Take `CCN(Cc1ccccc1)C(=O)Cn1cc2c(n1)CCCCCC2`: the RP-LC retention time is 1020 s.
In turn, `CCC(CC)C(=O)Nc1c(-c2ccccc2)nc2cc(C)ccn12` showed an RP-LC retention time of 654 s.
For the molecule `CC1=C(c2ccc(Cl)cc2)S(=O)(=O)N=C1N1CCCN(C(=O)c2ccccc2)CC1`, the RP-LC retention time is 862 s.
Molecule `CCCC(=O)N(C)CC1CCOCC1` returned an RP-LC retention time of 630 s.
With `Cc1ccc(CNC(=O)C2(C)CCN(S(=O)(=O)c3cc(C)cc(C)c3)CC2)cc1` the figure was 1030 s; with `CC(C)Cn1c(=O)c(C(=O)NCc2ccc(C(F)(F)F)cc2)nc2cccnc21`, 1050 s; with `COc1cc(C(C)=O)ccc1OCC(O)CN1CCN(c2ccccc2F)CC1` (centres undefined), 652 s.
The molecule `O=C(C1CCN(S(=O)(=O)c2ccc3[nH]c(=O)ccc3c2)CC1)N1CCN(c2ccccc2)CC1` registered an RP-LC retention time of 735 s.
For `COc1ccc(NC(=O)CN2CCc3[nH]c4c(C)c(C)ccc4c(=O)c3C2)c(OC)c1`, the RP-LC retention time was 626 s.
For the molecule `CC(C)CCN1CCC(N2CCN(S(=O)(=O)c3ccc(F)cc3F)CC2)C1=O` (centres undefined), the RP-LC retention time turned out to be 690 s.
For `COc1ccc(-c2csc(C)n2)cc1S(=O)(=O)N1CCN(c2cccc(Cl)c2)CC1`, the RP-LC retention time is 1170 s.
`COc1cccc(Cn2nnc(C(=O)O)c2C(C)C)c1` displayed an RP-LC retention time of 694 s.
`Cc1ccc(-n2c(N3CCC(C(=O)NCC(C)C)CC3)nc3ccsc3c2=O)cc1`: the RP-LC retention time stood at 821 s.
As to `COc1ccc(S(=O)(=O)C(CNC(=O)c2cccc([N+](=O)[O-])c2C)c2ccco2)cc1` (centres undefined), the RP-LC retention time was found to be 664 s.
As for `COc1ccccc1C1(CNC(=O)C(=O)NCCC2=CCCCC2)CCOCC1`, the RP-LC retention time was 998 s.
Take `CCCNC(=O)N1CCC2(CC1)Nc1cc(F)ccc1-n1cccc12`: the RP-LC retention time was 888 s.
On to `Cc1cc(=O)n(CC(=O)NCc2ccc3c(c2)OCO3)c(-c2ccc(F)cc2)n1`, for which the RP-LC retention time was determined as 940 s.
With `COc1ccc(C2=NN(C(=O)c3ccccc3)C(c3cccc([N+](=O)[O-])c3)C2)cc1` (centres undefined), the RP-LC retention time was found to be 1000 s.
For `O=C(c1ccc(S(=O)(=O)c2ccccc2)nc1)N1CCN(C2CCCCC2)CC1`, the RP-LC retention time was found to be 566 s.
Regarding `CCOC(=O)c1nc(NCCc2ccc(OCC)cc2)c2ccccc2n1`, the RP-LC retention time was 836 s.
On to `CCCN1CCN(CCCNC(=O)c2c(N3CCCC3=O)c3cc(F)ccc3n2CC)CC1`, for which the RP-LC retention time came to 602 s.
The molecule `CC(=O)N(C)CCc1noc(-c2ccc(C(=O)NCCC(C)C)cc2)n1` gave an RP-LC retention time of 733 s.
In turn, `O=C(CCC(=O)N1CC2CCCN2c2ccccc21)NCc1ccccn1` (centres undefined) displayed an RP-LC retention time of 639 s.
With `O=c1n(Cc2cccc(Br)c2)nc2c(S(=O)(=O)N3CCCCC3)cccn12` the figure was 941 s.
`CCC(C)(C)NC(=O)c1c(C)oc2ccn(Cc3ccc(F)cc3)c(=O)c12` came in with an RP-LC retention time of 1140 s.
Take `CCOc1cccc(-c2noc(-c3nn(-c4cccc(F)c4)ccc3=O)n2)c1`: the RP-LC retention time was 978 s.
`CCOC(=O)c1ccc(NC(=O)C2CCN(S(=O)(=O)c3cn(CC)cn3)CC2)cc1` had an RP-LC retention time of 774 s.
Regarding `COC[C@@H]1CN(Cc2cc(C)nn2C)C[C@H]1c1ccccn1`, the RP-LC retention time was 559 s.
For `Cc1ccc(CNC(=O)c2c(C)sc3ccn(CC(C)C)c(=O)c23)o1`, the RP-LC retention time is 683 s.
In turn, `O=C(c1ccccn1)N1CCC(n2nc(-c3ccsc3)ccc2=O)CC1` gave an RP-LC retention time of 641 s.
`COc1ccc(N2C(=O)CCC(C(=O)N3CCOCC3)C2c2ccc(OC)c(OC)c2)cc1` (centres undefined) yielded an RP-LC retention time of 619 s.
As for `CCn1cnc(S(=O)(=O)N2CCCC(C(=O)Nc3cccc(C(F)(F)F)c3)C2)c1` (centres undefined), the RP-LC retention time amounted to 871 s.
In turn, `Cc1ccc(-c2ncccc2CNS(=O)(=O)Cc2cc(F)cc(F)c2)cc1` showed an RP-LC retention time of 739 s.
Consider `Cc1cc(C)c2c(N3CCOCC3)nc(C(=O)N(C)Cc3ccco3)nc2n1`, for which the RP-LC retention time turned out to be 611 s.
The value for `Cc1ccc2[nH]cc(CCNC(=O)CC3CCN(C(=O)C4CCCCC4)CC3)c2c1` was 850 s; that for `c1ccc(CSc2nc3ncncc3[nH]2)cc1` was 719 s.
With `O=C(Nc1ccc2c(c1)CCC(=O)N2Cc1ccccc1)c1ccccc1C(F)(F)F` the figure was 855 s.
Molecule `CS(=O)(=O)Nc1ccc(-c2noc(CNC(=O)c3ccccc3)n2)cc1` displayed an RP-LC retention time of 704 s.
Regarding `Cn1cccc1-c1cc2n(n1)CCCN2C(=O)CCC(=O)NCc1ccc(F)cc1`, the RP-LC retention time is 717 s.
`COc1ccc(Cl)cc1NC(=O)C1CCN(S(=O)(=O)c2ccc3c(c2)NC(=O)C(C)O3)CC1` (centres undefined) gave an RP-LC retention time of 946 s.
Take `CCOC(=O)CNC(=O)N1CCN(CCn2c(C(F)(F)F)nc3cccnc32)CC1`: the RP-LC retention time was found to be 588 s.
The value for `CC(=O)Nc1ccc(C(=O)NC2CCN(c3cc(-c4ccc(Cl)cc4)[nH]n3)C2)cc1` (centres undefined) was 675 s.
